Assay results published in patent US20250152626A1, “CONSTRUCTION AND APPLICATION OF ENHANCED NEUTROPHIL DRUG” (China Pharmaceutical University, priority 2023, published 2025).

System: Human neutrophils
Test: Effect of single inducers on neutrophil viability (Example 1)
Format: cell-based
Settings: FIG. 2; for effect on neutrophil lifespan / viability: single inducer 8 h in 1640 medium, inducer removed, culture 24 h, apoptosis by flow cytometry; for concentration with the best effect on neutrophil lifespan: cytokine inducers tested at 0-100 ng/mL
Protocol: Human neutrophils were incubated with different concentrations of single inducers in 1640 medium for 8 h. Different concentrations of single inducers included: • inducer 1 (IFNγ): 0, 10, 20, 30, 50, 100 ng/mL; • inducer 2 (GM-CSF): 0, 10, 20, 30, 50, 100 ng/mL; • inducer 3 (TNFα): 0, 10, 20, 30, 50, 100 ng/mL; • inducer 4 (duvalumab): 0.1, 0.5, 1, 2, 3, 5, 8, 10 μg/mL; • inducer 5 (avelumab): 0.1, 0.5, 1, 2, 3, 5, 8, 10 μg/mL; • inducer 6 (Q-VD-Oph): 1, 10, 20, 50, 60, 80, 100 μM; and • inducer 7 (Nec-1): 1, 10, 20, 50, 60, 80, 100 μM; and • conditions of culture were 37° C. and 5% CO2. The apoptosis of neutrophils was detected by flow cytometry after removing the inducer and continuing culture for 24 h.

[1] = apoptosis inhibitors tested at 1-100 μM
[2] = PD-L1 inhibitors tested at 0.1-10 μg/mL

| Molecule | concentration with the best effect on neutrophil viability [1] [µM] | effect on neutrophil lifespan / viability | concentration with the best effect on neutrophil lifespan [ng/mL] | concentration with the best effect on neutrophil viability [2] [µg/mL] |
| --- | --- | --- | --- | --- |
| CC(C)[C@H](NC(=O)c1ccc2ccccc2n1)C(=O)N[C@@H](CC(=O)O)C(=O)COc1c(F)cccc1F [inducer 6, Q-VD-Oph] | 50 | increase neutrophil viability |  |  |
| CN1C(=O)C(Cc2c[nH]c3ccccc23)NC1=S (stereo not drawn) [inducer 7, Nec-1] | 50 | increase neutrophil viability |  |  |
| GM-CSF [inducer 2] |  | significantly prolong the lifespan of neutrophils | 20 |  |
| avelumab [inducer 5] |  | increase neutrophil viability |  | 2 |
| duvalumab [inducer 4] |  | increase neutrophil viability |  | 2 |
| IFNγ (protein, UniProt P01579 24-161, looked up, cytokine, single inducer) Interferon gamma: QDPYVKEAENLKKYFNAGHSDVADNGTLFLGILKNWKEESDRKIMQSQIVSFYFKLFKNFKDDQSIQKSVETIKEDMNVKFFNSNKKKRDDFEKLTNYSVTDLNVQRKAIHELIQVMAELSPAAKTGKRKRSQMLFRG |  | significantly prolong the lifespan of neutrophils | 20 |  |
